Test results as given in the supplement of paper PMC10702517.
± gives the standard deviation.

Legend:
[1] = chemical recovery by SPE of plasma after PDMS sampling; higher = better extraction; settings: pooled human plasma, extraction method: HLB SPE of plasma after PES
[2] = chemical recovery from spiked human plasma; higher = better extraction; settings: pooled human plasma
[3] = extraction method: PES+SPE (3 d PDMS equilibration then HLB SPE)
[4] = extraction method: SPE only (HLB 96-well)
[5] = extraction method: SPE only (HLB 96-well), PES comparison experiment
[6] = extraction method: solvent precipitation (ACN + hexane)
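Throughout, for chemical recovery by SPE of plasma after PDMS sampling: over 400 spiked chemicals quantified by LC-HRMS or GC-HRMS via internal standard calibration, recovery relative to spike mix added to unspiked plasma extract to correct matrix effects.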

| SMILES | chemical recovery by SPE of plasma ([1]; equilibration time (d): 1) [%] | chemical recovery by SPE of plasma ([1]; equilibration time (d): 3) [%] | chemical recovery by SPE of plasma ([1]; equilibration time (d): 6) [%] | chemical recovery [2, 3] [%] | chemical recovery [2, 4] [%] | chemical recovery [2, 5] [%] | chemical recovery [2, 6] [%] |
| --- | --- | --- | --- | --- | --- | --- | --- |
| Cn1ccnc1S [Methimazol] | 0.224 ± 0.23 | 0.612 ± 0.32 | 0.886 ± 0.81 | 0.467 ± 0.11 | 0.483 ± 0.27 | 0.192 ± 0.098 | 44.8 ± 6.5 |
| CCc1cccc(C)c1NC(=O)CS(=O)(=O)O [Metolachlor CGA 368-208] | 37.9 ± 8.1 | 46.1 ± 2.7 | 43.1 ± 7.2 |  |  | 47.9 ± 5.2 |  |
| Oc1nc(O)c2cn[nH]c2n1 [Oxypurinol] |  | 1.02 ± 0.27 |  |  |  |  | 17 ± 2.7 |
| O=S(=O)(O)c1cccc2ccc(O)cc12 [2-Naphthol-8-sulfonic acid] |  | 47.9 ± 0.58 | 45 ± 6.4 |  | 61.3 ± 20 | 44.7 ± 5.6 | 74.1 ± 3.9 |
| Cc1cccc(C)c1N(Cn1cccn1)C(=O)C[S+]([O-])CC(=O)O (stereo not given) [Metazachlor BH 479-9] | 54.5 ± 12 | 57.9 ± 5 | 54.7 ± 7.3 |  | 48.2 ± 5.2 | 47.4 ± 4.1 | 81 ± 4.5 |
| O=c1[nH]nc(C(F)(F)F)s1 [Thiadone] |  | 47.9 ± 6.8 | 41.5 ± 14 |  |  | 15.9 ± 4.4 |  |
| COc1cc([C@@H]2c3cc4c(cc3[C@@H](O[C@@H]3O[C@@H]5CO[C@@H](C)O[C@H]5[C@H](O)[C@H]3O)[C@H]3COC(=O)[C@H]23)OCO4)cc(OC)c1O [Etoposide] | 36.8 ± 3.4 | 40.9 ± 6.5 | 38.4 ± 0.53 | 54.9 ± 4.7 |  |  | 35.5 ± 10 |
| Cc1cccc(C)c1N(Cn1cccn1)C(=O)CS(=O)(=O)O [Metazachlor ESA] | 44.3 ± 5.8 | 50.6 ± 2.1 | 43.4 ± 3 |  | 97.9 ± 4.8 |  |  |
| Brc1ccc(Oc2ccc(Br)cc2Br)c(Br)c1 [BDE47] | 1.38 ± 1 | 1.56 ± 0.066 | 1.34 ± 0.21 |  |  |  |  |
| c1ccc2c(c1)-c1ccc3ccc4cccc5cc-2c1c3c45 [Indeno(1,2,3-cd)pyrene] | 1.57 ± 0.15 | 1.3 ± 0.43 | 1.16 ± 0.33 |  |  |  |  |
| CCc1cccc(C)c1N(C(=O)CS(=O)(=O)O)[C@@H](C)C(=O)O |  | 28.5 ± 9.3 | 33.9 ± 4.1 |  |  |  |  |
| CC(C)(C)c1ccc(S(N)(=O)=O)cc1 [4-tert-Butylbenzenesulfonamide] | 11 ± 0.85 | 17 ± 1.5 | 11.3 ± 1.4 |  |  |  |  |
| CC(C)(c1ccccc1)c1ccc(Nc2ccc(C(C)(C)c3ccccc3)cc2)cc1 [4,4'-Bis(alpha,alpha-dimethylbenzyl)diphenylamine] |  |  |  |  | 2.12 ± 1.1 |  |  |
| CC(C)NCC(O)COc1ccc(CC(N)=O)cc1 (stereo not given) [Atenolol] |  |  |  | 17.1 ± 4.2 | 14 ± 6.1 |  | 76 ± 2.5 |
| CC(C)N1C(=O)c2ccccc2N(C)S1(=O)=O [Bentazone-methyl] |  |  |  | 53.5 ± 11 | 28.9 ± 1.5 |  | 46.3 ± 5.3 |
| Nc1nc(NC2CC2)c2ncn([C@H]3C=C[C@@H](CO)C3)c2n1 [Abacavir] |  |  |  |  |  |  | 77 ± 3.4 |
